{
  "source": "PubChem BioAssay AID1963853",
  "about": "(Molecular Pharmacology Branch, DTP, NCI, 2024);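 note: spheroids exposed to compounds for seven days before readout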",
  "tested_on": "266295-075-R-J1-PDC spheroid viability",
  "test": "Anticancer human tumor 266295-075-R-J1-PDC patient-derived head and neck squamous carcinoma cell line growth inhibition [POLQ]",
  "details": "spheroids with HUVEC and MSC; for IC50: curve of first compound; for viability, T/C: stronger effect = lower value",
  "procedure,_shortened": "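Growth inhibition in 3D: complex spheroids (tumor PDC, HUVEC, MSC) treated with POLQ inhibitor combinations; where Cmax unknown, highest tested concentration 10 microM, except SN-38 at 1 microM.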",
  "key": {"[1]": {"details": "second compound 0.0316 µM, first compound 0.0316 µM"}, "[2]": {"details": "second compound 0.0316 µM, first compound 0.1 µM"}, "[3]": {"details": "second compound 0.0316 µM, first compound 0.316 µM"}, "[4]": {"details": "second compound 0.0316 µM, first compound 1 µM"}, "[5]": {"details": "second compound 0.1 µM, first compound 0.0316 µM"}, "[6]": {"details": "second compound 0.1 µM, first compound 0.1 µM"}, "[7]": {"details": "second compound 0.1 µM, first compound 0.316 µM"}, "[8]": {"details": "second compound 0.1 µM, first compound 1 µM"}, "[9]": {"details": "second compound 0.316 µM, first compound 0.0316 µM"}, "[10]": {"details": "second compound 0.316 µM, first compound 0.1 µM"}, "[11]": {"details": "second compound 0.316 µM, first compound 0.316 µM"}, "[12]": {"details": "second compound 0.316 µM, first compound 1 µM"}, "[13]": {"details": "second compound 1 µM, first compound 0.0316 µM"}, "[14]": {"details": "second compound 1 µM, first compound 0.1 µM"}, "[15]": {"details": "second compound 1 µM, first compound 0.316 µM"}, "[16]": {"details": "second compound 1 µM, first compound 1 µM"}, "[17]": {"details": "second compound 3.16 µM, first compound 0.0316 µM"}, "[18]": {"details": "second compound 3.16 µM, first compound 0.1 µM"}, "[19]": {"details": "second compound 3.16 µM, first compound 0.316 µM"}, "[20]": {"details": "second compound 3.16 µM, first compound 1 µM"}, "[21]": {"details": "second compound 10 µM, first compound 0.0316 µM"}, "[22]": {"details": "second compound 10 µM, first compound 0.1 µM"}, "[23]": {"details": "second compound 10 µM, first compound 0.316 µM"}, "[24]": {"details": "second compound 10 µM, first compound 1 µM"}},
  "data": [
    {"smiles": "COc1cccc(OCCCN)c1-c1cc(Nc2cnc(C#N)cn2)n[nH]1", "note": "+ Cc1cccc(N(C)C(=O)C2C(O)CCN2c2nc(C)cc(C(F)(F)F)c2C#N)c1", "values": [
      {"measurement": "IC50", "setting": "second compound 0.0316 µM", "result": "> 1", "unit": "µM"},
      {"measurement": "IC50", "setting": "second compound 0.1 µM", "result": "> 1", "unit": "µM"},
      {"measurement": "IC50", "setting": "second compound 0.316 µM", "result": "> 1", "unit": "µM"},
      {"measurement": "IC50", "setting": "second compound 1 µM", "result": 0.985, "unit": "µM"},
      {"measurement": "IC50", "setting": "second compound 3.16 µM", "result": "> 1", "unit": "µM"},
      {"measurement": "IC50", "setting": "second compound 10 µM", "result": "> 1", "unit": "µM"},
      {"measurement": "viability, T/C", "setting": "second compound 0.0316 µM, first compound 0.00316 µM", "result": 128, "unit": "%"},
      {"measurement": "viability, T/C", "setting": "second compound 0.0316 µM, first compound 0.01 µM", "result": 127, "unit": "%"},
      {"measurement": "viability, T/C", "setting": "[1]", "result": 87.2, "unit": "%"},
      {"measurement": "viability, T/C", "setting": "[2]", "result": 80, "unit": "%"},
      {"measurement": "viability, T/C", "setting": "[3]", "result": 81.7, "unit": "%"},
      {"measurement": "viability, T/C", "setting": "[4]", "result": 72, "unit": "%"},
      {"measurement": "viability, T/C", "setting": "second compound 0.1 µM, first compound 0.00316 µM", "result": 101, "unit": "%"},
      {"measurement": "viability, T/C", "setting": "second compound 0.1 µM, first compound 0.01 µM", "result": 101, "unit": "%"},
      {"measurement": "viability, T/C", "setting": "[5]", "result": 83.3, "unit": "%"},
      {"measurement": "viability, T/C", "setting": "[6]", "result": 76.3, "unit": "%"},
      {"measurement": "viability, T/C", "setting": "[7]", "result": 79.1, "unit": "%"},
      {"measurement": "viability, T/C", "setting": "[8]", "result": 62, "unit": "%"},
      {"measurement": "viability, T/C", "setting": "second compound 0.316 µM, first compound 0.00316 µM", "result": 109, "unit": "%"},
      {"measurement": "viability, T/C", "setting": "second compound 0.316 µM, first compound 0.01 µM", "result": 90.7, "unit": "%"},
      {"measurement": "viability, T/C", "setting": "[9]", "result": 68, "unit": "%"},
      {"measurement": "viability, T/C", "setting": "[10]", "result": 71.1, "unit": "%"},
      {"measurement": "viability, T/C", "setting": "[11]", "result": 72.1, "unit": "%"},
      {"measurement": "viability, T/C", "setting": "[12]", "result": 63.9, "unit": "%"},
      {"measurement": "viability, T/C", "setting": "second compound 1 µM, first compound 0.00316 µM", "result": 127, "unit": "%"},
      {"measurement": "viability, T/C", "setting": "second compound 1 µM, first compound 0.01 µM", "result": 85.5, "unit": "%"},
      {"measurement": "viability, T/C", "setting": "[13]", "result": 89.8, "unit": "%"},
      {"measurement": "viability, T/C", "setting": "[14]", "result": 75.1, "unit": "%"},
      {"measurement": "viability, T/C", "setting": "[15]", "result": 66.7, "unit": "%"},
      {"measurement": "viability, T/C", "setting": "[16]", "result": 50.1, "unit": "%"},
      {"measurement": "viability, T/C", "setting": "second compound 3.16 µM, first compound 0.00316 µM", "result": 106, "unit": "%"},
      {"measurement": "viability, T/C", "setting": "second compound 3.16 µM, first compound 0.01 µM", "result": 101, "unit": "%"},
      {"measurement": "viability, T/C", "setting": "[17]", "result": 77.7, "unit": "%"},
      {"measurement": "viability, T/C", "setting": "[18]", "result": 77.7, "unit": "%"},
      {"measurement": "viability, T/C", "setting": "[19]", "result": 75.2, "unit": "%"},
      {"measurement": "viability, T/C", "setting": "[20]", "result": 64.8, "unit": "%"},
      {"measurement": "viability, T/C", "setting": "second compound 10 µM, first compound 0.00316 µM", "result": 107, "unit": "%"},
      {"measurement": "viability, T/C", "setting": "second compound 10 µM, first compound 0.01 µM", "result": 108, "unit": "%"},
      {"measurement": "viability, T/C", "setting": "[21]", "result": 81.5, "unit": "%"},
      {"measurement": "viability, T/C", "setting": "[22]", "result": 74.3, "unit": "%"},
      {"measurement": "viability, T/C", "setting": "[23]", "result": 58.5, "unit": "%"},
      {"measurement": "viability, T/C", "setting": "[24]", "result": 75.3, "unit": "%"}
    ]},
    {"smiles": "CC1COCCN1c1cc(C2(S(C)(=N)=O)CC2)nc(-c2ccnc3[nH]ccc23)n1", "note": "(centres undefined) + Cc1cccc(N(C)C(=O)C2C(O)CCN2c2nc(C)cc(C(F)(F)F)c2C#N)c1", "values": [
      {"measurement": "IC50", "setting": "second compound 0.0316 µM", "result": "> 10", "unit": "µM"},
      {"measurement": "IC50", "setting": "second compound 0.1 µM", "result": "> 10", "unit": "µM"},
      {"measurement": "IC50", "setting": "second compound 0.316 µM", "result": "> 10", "unit": "µM"},
      {"measurement": "IC50", "setting": "second compound 1 µM", "result": 9.31, "unit": "µM"},
      {"measurement": "IC50", "setting": "second compound 3.16 µM", "result": "> 10", "unit": "µM"},
      {"measurement": "IC50", "setting": "second compound 10 µM", "result": "> 10", "unit": "µM"},
      {"measurement": "viability, T/C", "setting": "[1]", "result": 101, "unit": "%"},
      {"measurement": "viability, T/C", "setting": "[2]", "result": 83.2, "unit": "%"},
      {"measurement": "viability, T/C", "setting": "[3]", "result": 87, "unit": "%"},
      {"measurement": "viability, T/C", "setting": "[4]", "result": 79.8, "unit": "%"},
      {"measurement": "viability, T/C", "setting": "second compound 0.0316 µM, first compound 3.16 µM", "result": 81.3, "unit": "%"},
      {"measurement": "viability, T/C", "setting": "second compound 0.0316 µM, first compound 10 µM", "result": 57, "unit": "%"},
      {"measurement": "viability, T/C", "setting": "[5]", "result": 95.2, "unit": "%"},
      {"measurement": "viability, T/C", "setting": "[6]", "result": 83.5, "unit": "%"},
      {"measurement": "viability, T/C", "setting": "[7]", "result": 79.3, "unit": "%"},
      {"measurement": "viability, T/C", "setting": "[8]", "result": 86.8, "unit": "%"},
      {"measurement": "viability, T/C", "setting": "second compound 0.1 µM, first compound 3.16 µM", "result": 72.1, "unit": "%"},
      {"measurement": "viability, T/C", "setting": "second compound 0.1 µM, first compound 10 µM", "result": 55.1, "unit": "%"},
      {"measurement": "viability, T/C", "setting": "[9]", "result": 89.8, "unit": "%"},
      {"measurement": "viability, T/C", "setting": "[10]", "result": 98.6, "unit": "%"},
      {"measurement": "viability, T/C", "setting": "[11]", "result": 111, "unit": "%"},
      {"measurement": "viability, T/C", "setting": "[12]", "result": 81.4, "unit": "%"},
      {"measurement": "viability, T/C", "setting": "second compound 0.316 µM, first compound 3.16 µM", "result": 75.8, "unit": "%"},
      {"measurement": "viability, T/C", "setting": "second compound 0.316 µM, first compound 10 µM", "result": 56.7, "unit": "%"},
      {"measurement": "viability, T/C", "setting": "[13]", "result": 94.4, "unit": "%"},
      {"measurement": "viability, T/C", "setting": "[14]", "result": 100, "unit": "%"},
      {"measurement": "viability, T/C", "setting": "[15]", "result": 96.8, "unit": "%"},
      {"measurement": "viability, T/C", "setting": "[16]", "result": 82.5, "unit": "%"},
      {"measurement": "viability, T/C", "setting": "second compound 1 µM, first compound 3.16 µM", "result": 69.8, "unit": "%"},
      {"measurement": "viability, T/C", "setting": "second compound 1 µM, first compound 10 µM", "result": 48.5, "unit": "%"},
      {"measurement": "viability, T/C", "setting": "[17]", "result": 103, "unit": "%"},
      {"measurement": "viability, T/C", "setting": "[18]", "result": 93.6, "unit": "%"},
      {"measurement": "viability, T/C", "setting": "[19]", "result": 81.4, "unit": "%"},
      {"measurement": "viability, T/C", "setting": "[20]", "result": 89.3, "unit": "%"},
      {"measurement": "viability, T/C", "setting": "second compound 3.16 µM, first compound 3.16 µM", "result": 72.5, "unit": "%"},
      {"measurement": "viability, T/C", "setting": "second compound 3.16 µM, first compound 10 µM", "result": 55.2, "unit": "%"},
      {"measurement": "viability, T/C", "setting": "[21]", "result": 92.8, "unit": "%"},
      {"measurement": "viability, T/C", "setting": "[22]", "result": 98.1, "unit": "%"},
      {"measurement": "viability, T/C", "setting": "[23]", "result": 97.1, "unit": "%"},
      {"measurement": "viability, T/C", "setting": "[24]", "result": 94.3, "unit": "%"},
      {"measurement": "viability, T/C", "setting": "second compound 10 µM, first compound 3.16 µM", "result": 74.2, "unit": "%"},
      {"measurement": "viability, T/C", "setting": "second compound 10 µM, first compound 10 µM", "result": 56.2, "unit": "%"}
    ]}
  ]
}
